Assay results reported in ChEMBL document CHEMBL1121865, “Epimeric cis-decahydroquinoline-5-carboxylic acids: effects on gamma-aminobutyric acid uptake and receptor binding in vitro” (J Med Chem, 1981).

Columns and labels:
[1] = molecular target: T1, GABA-A receptor; anion channel (Rattus norvegicus) (UniProt O09028+P15431+P18506+P18508+P19969+P20236+P23574+P23576+P28471+P28473+P30191+P62813+P63079+P63138+Q91ZM7+Q9ES14); settings: Membrane, 0.01 uM
Description: Percent displacement of [3H]GABA at Gamma-aminobutyric acid receptor of rat brain membranes at 0.01 uM

[2] = molecular target: T1, GABA-A receptor; anion channel (Rattus norvegicus); test: Percent displacement of [3H]GABA at Gamma-aminobutyric acid receptor of rat brain membranes at 100 uM; type: cell membranes; settings: Membrane
[3] = molecular target: GABA transporter (Rattus norvegicus) (UniProt P31647+P23978+P31646+P48056); test: Percent inhibition of high affinity [3H]GABA uptake into rat brain synaptosomes at 100 uM; type: functional, subcellular
Chain of GABA transporter (Rattus norvegicus) (P31646 whole entry, looked up): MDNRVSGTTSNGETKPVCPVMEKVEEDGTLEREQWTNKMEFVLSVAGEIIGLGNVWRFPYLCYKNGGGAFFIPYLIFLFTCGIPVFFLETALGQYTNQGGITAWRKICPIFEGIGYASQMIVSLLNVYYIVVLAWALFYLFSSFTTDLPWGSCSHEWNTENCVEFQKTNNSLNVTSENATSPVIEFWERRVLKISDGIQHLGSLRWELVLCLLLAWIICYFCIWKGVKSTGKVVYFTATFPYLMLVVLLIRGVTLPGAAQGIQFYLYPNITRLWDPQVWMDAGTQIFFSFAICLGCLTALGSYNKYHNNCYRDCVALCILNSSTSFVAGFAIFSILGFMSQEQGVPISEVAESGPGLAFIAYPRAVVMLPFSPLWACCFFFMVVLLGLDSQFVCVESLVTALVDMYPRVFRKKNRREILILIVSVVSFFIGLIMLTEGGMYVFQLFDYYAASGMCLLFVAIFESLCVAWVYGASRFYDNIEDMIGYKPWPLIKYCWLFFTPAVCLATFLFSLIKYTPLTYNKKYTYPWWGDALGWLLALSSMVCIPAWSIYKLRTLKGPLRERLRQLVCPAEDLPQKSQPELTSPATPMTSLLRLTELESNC
Chain of GABA transporter (Rattus norvegicus) (P31647 whole entry, looked up): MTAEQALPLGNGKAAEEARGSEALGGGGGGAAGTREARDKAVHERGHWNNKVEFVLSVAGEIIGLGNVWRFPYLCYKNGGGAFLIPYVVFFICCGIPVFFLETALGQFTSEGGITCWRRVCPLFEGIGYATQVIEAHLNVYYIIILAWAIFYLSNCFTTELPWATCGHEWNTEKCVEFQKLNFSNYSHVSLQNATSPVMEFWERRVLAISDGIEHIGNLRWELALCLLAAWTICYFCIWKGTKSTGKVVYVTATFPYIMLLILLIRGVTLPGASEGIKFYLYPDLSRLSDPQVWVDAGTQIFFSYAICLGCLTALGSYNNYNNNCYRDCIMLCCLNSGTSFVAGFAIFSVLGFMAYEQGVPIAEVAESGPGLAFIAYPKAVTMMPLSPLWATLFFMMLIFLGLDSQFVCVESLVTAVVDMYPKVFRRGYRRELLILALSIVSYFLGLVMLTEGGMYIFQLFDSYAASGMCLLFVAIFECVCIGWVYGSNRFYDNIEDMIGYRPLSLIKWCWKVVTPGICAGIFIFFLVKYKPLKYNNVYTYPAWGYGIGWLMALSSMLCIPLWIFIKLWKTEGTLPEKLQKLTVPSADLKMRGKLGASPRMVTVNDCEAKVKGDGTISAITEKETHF
Chain of GABA transporter (Rattus norvegicus) (P48056 whole entry, looked up): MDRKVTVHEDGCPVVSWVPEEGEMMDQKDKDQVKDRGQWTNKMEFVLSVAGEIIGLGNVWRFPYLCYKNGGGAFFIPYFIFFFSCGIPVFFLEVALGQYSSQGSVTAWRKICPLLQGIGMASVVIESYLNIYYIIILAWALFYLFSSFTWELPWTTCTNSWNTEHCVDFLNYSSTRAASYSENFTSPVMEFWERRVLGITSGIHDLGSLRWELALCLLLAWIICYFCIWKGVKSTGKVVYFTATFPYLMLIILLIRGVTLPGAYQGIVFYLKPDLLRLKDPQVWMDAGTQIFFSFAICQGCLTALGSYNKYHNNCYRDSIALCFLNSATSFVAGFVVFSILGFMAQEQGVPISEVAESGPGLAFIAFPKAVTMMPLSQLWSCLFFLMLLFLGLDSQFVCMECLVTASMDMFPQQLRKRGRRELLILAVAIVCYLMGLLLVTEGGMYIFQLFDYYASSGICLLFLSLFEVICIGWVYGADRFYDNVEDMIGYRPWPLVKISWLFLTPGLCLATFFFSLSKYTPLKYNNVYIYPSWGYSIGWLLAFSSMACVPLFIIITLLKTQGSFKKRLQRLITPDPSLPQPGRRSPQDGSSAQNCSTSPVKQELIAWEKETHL

Row | Structure (SMILES) | Displacement [1] | Displacement [2] | inhibition [3]
1 | NCCCC(=O)O | 48% |  | 
2 | NCc1cc(O)no1 | 86% |  | 
3 | O=C(O)C1CCCC2NCCCC21 (cis isomer) |  | 17% | 20%
4 | O=C(O)C1CCCC2NCCCC21 (stereo in doubt) |  | < 5% | < 1%
